{"source": "patent US12251383B2", "about": "“Methods and compositions for KRAS inhibitors” (The Board of Regents of the University of Texas System, priority 2019, dated 2025)", "key": {"[1]": {"experiment": "Solubility in DMSO and common solvents", "assay_type": "physicochemical", "details": "DMSO"}, "[2]": {"tested_on": "KRAS^G12D", "experiment": "Cell signaling (Western) in BHK cells expressing KRAS G12D", "assay_type": "cell-based, hamster", "details": "BHK KRAS^G12D", "procedure": "(§1) Cell signaling. The inhibitory potential of compounds was tested in monoclonal Baby Hamster Kidney (BHK) cell lines stably expressing monomeric green fluorescence protein (mGFP)-tagged KRAS^G12D, K-Ras^G12V and HRAS^G12V. Cells were cultured in Dulbecco's Modified Eagle Medium (DMEM, Hyclone) supplemented with 10% v/v bovine calf serum and incubated with compound or vehicle (DMSO) for 3 h without serum. Cells were then harvested in lysis buffer (50 mM Tris (pH 7.5), 75 mM NaCl, 25 mM NaF, 5 mM MgCl2, 5 mM EGTA, 1 mM dithiothreitol, 100 μM NaVO4, 1% Nonidet P40 plus protease inhibitors) and subjected to Western analysis controlling protein loading by BCA (bicinchoninic acid) assay. Lysates were resolved with Bio-Rad polyacrylamide TGX 10% gel, transferred to polyvinylidene fluoride (PVDF) membrane and immunoblotted using pan-AKT (2920S), GFP (2956S), pAKT^S473 (4060L), p-cRaf^S338 (9427S), p-ERK^T202/Y204 (4370L), ERK1/2 (4695S) or β-actin antibodies (Cell Signaling Technology). IC50 values were calculated with Prism 4-parameter fit.\nCell signaling assays identify compound 11 as a promising initial hit Western analysis was used to quickly assess the potential impact of the predicted hits on MAPK signaling, a major pathway mediated by KRAS. Specifically, ERK1/2 phosphorylation levels (p-ERK) were monitored in BHK cells stably expressing KRAS^G12D treated with vehicle (DMSO), the MEK inhibitor […] (U) or compound at four different concentrations (1-100 μM). […] Compounds 9 and 11 (structures for compounds 1-11 are provided in Appendix I, attached hereto), on the other hand, decreased p-ERK levels at concentrations ≥50 μM and ≥5 μM, respectively. To verify the latter observation, the experiments were repeated in an expanded concentration range starting from 0.1 μM. […] However, compound 9 (see Appendix I, attached hereto) increased p-ERK levels at 25 and 38 μM in contrast to the decrease observed at higher concentrations (FIG. S1B; see Appendix I, attached hereto)."}, "[3]": {"target": "T1, KRAS^G12D-cRaf interaction (Homo sapiens, UniProt P01116, G12D)", "T1 construct": "expressed in transfected cells; host or cells: BHK (baby hamster kidney) cells, transient expression", "experiment": "FLIM-FRET of GFP-KRAS G12D and RFP-cRaf in BHK cells", "assay_type": "cell-based, hamster", "details": "2 μM", "from_the_text": "[formula] where P1 is polarization of free KRAS, P2 is polarization of Raf-bound KRAS, c is the total concentration of KRAS, and x the total concentration of Raf^RBD. (FIG. 2B) Amount of GFP-KRAS^G12D pulled down by GST-Raf^RBD after treatment of cell lysates with compound at the concentrations indicated (representative Westerns are shown at the top). The RBD sequence length was 1-149 and 51-131 in the fluorescence polarization and pull-down assays, respectively. (FIG. 2C) GFP fluorescence lifetime from FLIM-FRET using cells expressing GFP-KRAS^G12D alone or with RFP-Raf, with or without treatment by 1 μM compound 11. Data are shown as mean±S.E; significance estimated by one-way analysis of variance.\nFluorescence lifetime imaging (FLIM)-fluorescence resonance energy transfer (FRET). FLIM-FRET experiments were carried out using a lifetime fluorescence imaging attachment (Lambert Instruments, The Netherlands) on an inverted microscope (43). BHK cells transiently expressing mGFP-tagged KRAS^G12D (donor), alone or with mRFP-tagged cRaf^WT (acceptor) (using 1:5 ratio), were prepared as indicated in each experiment. The samples were excited using a sinusoidally modulated 3 W 470 nm light-emitting diode at 40 MHz under epi-illumination. Fluorescein was used as a lifetime reference standard. […] The phase and modulation were determined from 12 phase settings using the manufacturer's software. […]"}, "[4]": {"tested_on": "lung cancer cells", "experiment": "Cell proliferation (CyQuant), lung cancer cells overall", "assay_type": "cell-based", "from_the_text": "(FIG. 5A) Chemical structure of compounds 12, an analogue of 11 lacking the terminal methyl alcohol functional group. (FIG. 5B) Predicted binding pose of compound 12. (FIG. 5C) p-ERK and p-cRaf levels in BHK cells expressing KRAS^G12D treated with indicated concentrations of compound 12 or vehicle. (FIG. 5D) Proliferation profile of lung cancer cells upon treatment with increasing concentration of compound 12, monitored by a CyQuant assay. Data are averages over three independent experiments and error bars represent standard error. (FIG. 5E) GFP fluorescence lifetime from FLIM-FRET using cells expressing GFP-KRAS^G12D alone or together with RFP-cRaf, with or without treatment with 2 μM compound 12.\nCell proliferation. Potential effect of the ligands on cancer cell proliferation was tested in three lung cancer cells: SKLU-1, H1975 and H522. Cells were plated at ˜1,000 cell per well in a 96-well plate and maintained in full serum media with or without compound at 37° C. for 72 h changing the media with the compound every 24 h. Media with compound was prepared by serial dilution at concentrations indicated. Then cells were washed with PBS and frozen at −80° C. for a minimum of 24 h. Plates were thawed and CyQuant™ dye (in lysis buffer provided in the CyQuant™ cell proliferation assay kit, Invitrogen™) was added, and after a five-minute incubation, fluorescence (excitation: 480 nm emission: 520 nm) was measured with a Tecan Infinite M200 plate reader."}, "[5]": {"tested_on": "HRAS^G12V", "experiment": "Cell signaling (Western) in BHK cells expressing HRAS G12V", "assay_type": "cell-based, hamster", "details": "10 μM", "procedure": "as §1"}}, "note": "Entries after “also recorded” stand apart in the source; their conditions may differ.", "data": [{"compound": "Cc1nn2c(N3CCN(C)CC3)cc(-c3ccccc3)nc2c1-c1ccccc1", "note": "[Compound 12]", "values": [{"measurement": "solubility", "setting": "[1]", "result": "less soluble; also recorded: solubility issues"}, {"measurement": "concentration at which p-ERK levels are decreased", "setting": "[2]", "result": 2, "unit": "µM"}, {"measurement": "effect on p-cRaf levels", "setting": "[2]", "result": "no effect"}, {"measurement": "KRAS-Raf interaction (FLIM-FRET)", "setting": "[3]", "result": "does not affect"}, {"measurement": "inhibition of cell proliferation relative to compound 11", "setting": "[4]", "result": "somewhat less effective"}, {"measurement": "selectivity between KRAS mutant and KRAS^WT lung cancer cells", "setting": "[4]", "result": "better selectively profile"}]}, {"compound": "N#CC(=C(/N)Sc1ccccc1N)/C(C#N)=C(\\N)Sc1ccccc1N", "note": "[Compound U0126, reference compound]", "values": [{"measurement": "effect on MAPK signaling", "setting": "[5]", "result": "almost completely abolished"}]}]}
